{"source": "patent US20250339445A1", "about": "“Modulators of Orphan Nuclear Receptors for Treating Pancreatitis, Glioblastoma, Sarcopenia and Stroke” (Emory University, priority 2020, published 2025)", "key": {"[1]": {"assay": "Cellular toxicity assay, CEM cells", "format": "cell-based", "conditions": "human, CEM cells (human lymphoblastoid), compared to cycloheximide (+ control)", "procedure": "The toxicity of the compounds was assessed in human PBM, CEM (human lymphoblastoid), and Huh-7 cells, as described previously (see Schinazi R. F., Sommadossi J.-P., Saalmann V., Cannon D. L., Xie M.-Y., Hart G. C., Smith G. A. & Hahn E. F. Antimicrob. Agents Chemother. 1990, 34, 1061-67). Cycloheximide was included as positive cytotoxic control, and untreated cells exposed to solvent were included as negative controls. The cytotoxicity IC50 was obtained from the concentration-response curve using the median effective method described previously (see Chou T.-C. & Talalay P. Adv. Enzyme Regul. 1984, 22, 27-55; Belen'kii M. S. & Schinazi R. F. Antiviral Res. 1994, 25, 1-11)."}, "miR-122": {"system": "miR-122", "assay": "Expression and secretion of RORα-regulated microRNA in Huh-7 cells (qRT-PCR)", "format": "cell-based, human", "procedure": "Secreted microRNA levels in the medium of Huh-7 cells were analyzed by qRT-PCR and were normalized to spiked C. elegans miR-39. miR-18 and miR-93 served as controls for secreted microRNA and were not affected following Compound 1 addition.\nRNA extraction and quantitative Real-Time PCR analysis. Total RNA, including small RNAs, were isolated from […] of plasma or culture media samples using the miRNeasy Mini kit (Qiagen, Valencia, CA, USA) with 2 minor modifications. First, 200 μl of plasma or culture media were lysed with 1 ml of Qiazol solution. Second, a 50 pmol/1 of synthesized single strand Caenorhabditis elegans miRNA (cel-miR-39) was added as the spike-in control to monitor extraction efficiency. The remainder of the RNA extraction was performed according to the manufacturer's instructions. miRNAs were eluted with 30 μl of RNase-free water. Total RNA, including miRNAs, from cells or tissues were isolated using TRIzol reagent (Invitrogen, Carlsbad, CA, USA). cDNA was synthesized using the Quanta Biosciences qScript™ cDNA Synthesis Kit (95047-100) for mRNA analysis, and using the qScript™ microRNA cDNA Synthesis Kit (95107-100) for miRNAs analysis. qRT-PCR of miRNAs and mRNA was performed using the ABI 7900 HT Real-Time PCR System and a SYBR Green PCR Kit: Quanta Cat. #84018 and #84071 respectively. The fold expression and statistical significance were calculated using the 2-ΔΔ Ct method. All experiments were performed in triplicates."}, "Huh7 cells": {"system": "Huh7 cells", "assay": "LDH release from Huh7 cells", "format": "cell-based, human", "conditions": "Huh7, 16 h exposure"}, "[2]": {"system": "high fat diet (HFD) C57BL/6 mice", "assay": "HFD-fed C57BL/6 mice, 15 mg/kg Compound 1 (Example 8)", "format": "in vivo", "procedure": "Male C57BL/6J mice, 7 to 8 weeks old, were housed randomly in standard cages and were fed a HFD, or atherogenic diet (consisting 1% Chol and 0.5% cholic acid, see also Table 6). All mice had free access to water during the experimental period. During the feeding period body weight was monitored every 3 days. In the HFD experiment, after 4 or 6 weeks, the resultant obese mice were treated with antagomiR-122 (5 μg/mouse once a week for 3 weeks), or i.p. injected with Compound 1 (RORα agonist, 7.5 mg/kg twice a week for 3 weeks; or 15 mg/kg 3 times a week for 3 weeks). The obese control (HFD) group was administered only saline with DMSO and antagomiR-control. After 3 weeks of treatment mice were sacrificed and livers were taken for RNA-seq analysis. Livers, white adipose, and skeletal muscle tissues were frozen in liquid nitrogen or in optimum cutting temperature embedded frozen blocks, for further RNA and histologic analysis. In the atherogenic diet experiment mice were treated with 15 mg/kg Compound 1 after 3 weeks with the diet. After 3.5 weeks of treatment, mice were sacrificed, and the livers were frozen in liquid nitrogen or in optimum cutting temperature embedded frozen blocks. Plasma was collected from atherogenic diet-fed mice and saved in −20° C. for ALT and AST analysis using the Reflotron® Analyzer and test-strips (Roche).\nExperimental design: C57BL/6 mice fed for 6 weeks with high fat diet (HFD) were injected with 15 mg/kg Compound 1 (or saline+DMSO) 3 times a week for 3 weeks (n=6)."}, "Plasma half-life": {"assay": "Plasma half-life", "format": "in vivo, mice", "conditions": "mouse, read-out: plasma t1/2 (converted)"}, "Sgp130FC mice": {"system": "Sgp130FC mice", "assay": "Sgp130FC mice treated with Compound 1", "format": "in vivo", "conditions": "7.5 mg/kg ip twice/week, four weeks", "procedure": "Sgp130FC mice were injected (ip) with Compound 1 for four weeks (7.5 mg/kg, twice/week). FIGS. 6A-6B show the qRT-PCR analysis of miR-122 levels in plasma (6A), and in the livers (6B) after 4 weeks treatment with saline (as a control) and Compound 1. MicroRNA-18 was used as a negative control and its plasma and liver levels were not affected following treatment with Compound 1. The effect seen on this microRNA in FIG. 6A is not significant compared to the significant effect seen on miR-122.\nCompound 1 and AntagomiR injections to mice. C57BL/6 male mice, 7-8 weeks old, or Sgp130FC, 9-month-old male mice, were injected i.p. with 7.5 mg/kg Compound 1 dissolved in saline and 3% DMSO. Saline was injected as control. Mice were hydrodynamic tail vain injected with antagomiR-122 or antagomiR-control (negative control) (5 μg/mouse in 1.5 ml saline). Mice were sacrificed according to the legend of the figure describing the experimental results and the livers, white adipose and skeletal muscle tissues were frozen in liquid nitrogen or in OCT embedded frozen blocks, for further RNA and histologic analysis. AntagomiRs were obtained from Sigma Aldrich, see Table 3."}}, "note": "“Also recorded” adds a separate entry of the source.", "data": [{"compound": "O=C1Nc2cc(C(=O)N3CCC(Cc4ccccc4)CC3)ccc2Nc2ccccc21", "note": "[Compound 1]", "values": [{"measurement": "CC50", "setting": "[1]", "result": 11, "unit": "µM"}, {"measurement": "Secreted control microRNA (miR-18, miR-93) in Huh-7 medium", "setting": "miR-122; 1 μM, 24 hours", "result": "not affected"}, {"measurement": "Secreted miR-122 level in Huh-7 medium", "setting": "miR-122; 1 μM, 24 hours", "result": "increases secretion of miR-122"}, {"measurement": "Cellular miR-122 levels", "setting": "miR-122; Huh7, 16 h exposure", "result": "did not change"}, {"measurement": "miR-122 secreted to the medium", "setting": "miR-122; Huh7, 16 h exposure", "result": "significant miR-122 was secreted to the medium; also recorded: significant amount of MIR122 was secreted to the medium"}, {"measurement": "Toxicity to the cells as measured by LDH release", "setting": "Huh7 cells", "result": "no apparent toxicity"}, {"measurement": "Expression of RORα-regulated genes FGF21 and Gpase6", "setting": "[2]; HFD 6 weeks, 15 mg/kg 3 times a week for 3 weeks, liver", "result": "significantly induced expression"}, {"measurement": "miR-122 and precursors in plasma and liver", "setting": "[2]; HFD 6 weeks, 15 mg/kg 3 times a week for 3 weeks, 15 mg/kg", "result": "induced expression and secretion; also recorded: increased"}, {"measurement": "Hepatic synthesis of triglycerides", "setting": "[2]; mice fed a HFD or atherogenic diet", "result": "reduced hepatic synthesis of triglycerides"}, {"measurement": "half-life", "setting": "Plasma half-life", "result": 2.7, "unit": "h"}, {"measurement": "Liver and muscle triglyceride levels", "setting": "Sgp130FC mice", "result": "reduces liver and muscle triglyceride levels"}, {"measurement": "MicroRNA-18 plasma and liver levels (negative control)", "setting": "Sgp130FC mice", "result": "not affected"}, {"measurement": "miR-122 expression (plasma, liver)", "setting": "Sgp130FC mice", "result": "increases miR-122 expression"}]}]}
